Numbers after ± are expanded uncertainties.
Assay: refractive index (Na D-line) (dimensionless)
Settings: 298.2 K, 101.33 kPa, Liquid

`CCCCCCCCOS(=O)(=O)[O-].CCn1cc[n+](C)c1` [1-ethyl-3-methylimidazolium octyl sulfate] showed a refractive index (Standard Abbe refractometry) of 1.471 ± 0.0006.
Molecule `CCCCCCCC[n+]1ccn(C)c1.COCCOCCOS(=O)(=O)[O-]` [1-methyl-3-octylimidazolium 2-(2-methoxyethoxy)ethyl sulfate] has a refractive index of 1.466 ± 0.0009.
`c1ccccc1` [benzene] gave a refractive index of 1.4972 ± 0.0009.
`CCCCCCC` [heptane] showed a refractive index of 1.385 ± 0.0009.
`CCCCCCCCCCCCCCCC` [hexadecane] gave a refractive index of 1.4318 ± 0.0009.

— the NIST ThermoML archive (doi:10.1021/je050494l)
